Assay results taken from patent US20230131559A1, “RECOMBINANT PEPTIDES THAT BIND TO A TUMOUR-SPECIFIC ANTIBODY FOR BREAST CANCER AND USE” (Universidade Federal de Uberlândia, priority 2019, published 2023).

Columns and labels:
[1] = tested on: serum from 150 patients (BC, BBD, NC); test: ELISA of synthetic peptides against serum of 150 patients (diagnostic ability); type: binding, human; conditions: serum from 150 patients (50 from each study group)
Procedure: (§1) A microtiter plate was sensitized with 2.5 μg/well of each of the peptides diluted in carbonate/bicarbonate buffer (50 mM pH 9.6) and kept for 16 hours at 4° C. After blocking with PBS1X-BSA3% (1 hour at 37° C.) a single wash with PBS1X preceded the addition of FabC4 (1 ug), incubated for 1 hour at 37° C. After washing with PBS1X, anti-HA antibody which was labeled with peroxidase (Roche Applied Science) diluted 1:5000 in PBS-BSA3% for 1 h at 37° C. was added. After washing with PBS1X, the reaction with the OPD SigmaFast® (Sigma-Aldrich) substrate, interrupted with H2SO4 (2N), was analyzed in a spectrophotometer at a length of 492 nm (TP-Reader ThermoPlate).
The same conditions were used to analyze the diagnostic capacity of the peptides against the serum of the 150 patients previously described. Again, ANOVA and Mann Whitney tests were used for comparative purposes between groups with the aid of the GraphPad Prism 7.0 (GraphPad Software Inc.—La Jolla, Calif., USA) software. Values of P<0.05 were considered significant.

[2] = tested on: FabC4 antibody fragment; test: ELISA of synthetic peptides for binding to FabC4; conditions: 2.5 μg/well peptide, FabC4 1 ug, 492 nm
Procedure: Clones A5, A7, C4 and D6, which were able to discriminate the serum of individuals with BC from BBD and NC by Phage-ELISA, were chemically synthesized by GenScript USA Inc. To increase immunogenicity, the peptides were coupled to BSA. Enzyme immunoassays were conducted to assess the ability of FabC4 antibody to recognize these peptides.
as §1

| Sequence | reactivity between the samples [1] | absorbance, binding to FabC4 by ELISA [2] |
| --- | --- | --- |
| VTPCSSFSSFLP (listed as Homo sapiens) [pD6, chemically synthesized peptide of clone D6] | differential reactivity between the samples |  |
| VMPAAKYSLRVL (listed as Homo sapiens) [pC4, chemically synthesized peptide expressed in phage C4] |  | highest absorbance |
